Data reported in patent US11680060B2, “Bicycloheptane pyrrolidine orexin receptor agonists” (Merck Sharp & Dohme LLC, priority 2020, dated 2023).

Target: human OX2R (Homo sapiens (Human), UniProt O43614)
Experiment: IPOne (IP-1) assay in CHO cells expressing human OX2R
Format: cell-based
Conditions: for IC50: CHO cells expressing human OX2R, IP-One detection, 2 hours incubation, EC50 = inflection point of four parameter logistic fit, read-out: hOX2R_IP_IC50; for Emax: CHO, read-out: Emax (%); for Emax / Emax (%): percentage of mean max effect of a reference compound at 1 uM (100% activity by comparison to Orexin A), human OX2R
Description: The utility of the compounds in accordance with the present invention as orexin receptor OX1R and/or OX2R agonists may be readily determined without undue experimentation by methodology well known in the art. Both the OX1R and/or OX2R G-coupled protein receptors (GPCRs) couple through the Gαq signaling pathway, which ultimately promotes calcium mobilization via inositol triphosphate (IP3) production. The half-life of IP-3 is relatively short, being rapidly metabolized to inositol monophosphate (IP-1), which can be readily detected using a commercially available assay kit (IP-One; Cisbio; cat #621PAPEC) coupled with a cell line expressing the target receptor(s) of interest. The utility of the compounds in accordance with the present invention as orexin receptor OX1R and/or OX2R agonists may be determined utilizing this assay.
In a typical experiment, the OX1 and OX2 receptor agonist activity is determined in accordance with the following general experimental method. Chinese hamster ovary (CHO) cells expressing human OX1R and/or the human OX2R were grown in Iscove's modified DMEM containing glutaMAX™, 1% G418, 100 U/mL penicillin, 100 μg/mL streptomycin and 10% heat-inactivated qualified fetal bovine serum (FBS). The OX2R cells were seeded at 10,000 cells/well/50 μL and the OX1R cells were seeded at 20,000 cells/well/50 μL into 384-well white tissue culture plates (Greiner; cat #781080). All cell/media reagents were from GIBCO-Invitrogen Corp. The seeded cell plate(s) were incubated at 37° C. with 5% CO2 and 85% humidity for 20-24 hours. On the day of the assay, assay-ready compound plates were prepared using an acoustic liquid handler (ECHO; Labcyte), which dispensed sufficient volume of test compound stock (10 mM in DMSO) or 100% DMSO to prepare 10 point, ½-log dilutions in a final volume of 202.5 nL/well in all test wells of a 384-well diamond plate (Labcyte). Following completion of assay-ready plates, importantly, the next three steps were performed with minimal delay: 1) 20 μl of 1× stimulation buffer was added to the compound plate using a Multidrop Combi (small cassette, Thermo Fisher Scientific cat #24073290); 2) culture medium was removed from the cell plate using the Bluewasher plate washer (gentle spin; BlueCatBio); 3) 14 μl of compound/stimulation buffer mixture was added to the cell plate using a Bravo liquid handler (Agilent) prior to incubating cell plates at 37° C. with 5% CO2 and 85% humidity for 1 or 2 hours (OX1R and OX2R, respectively). During this incubation, IP-one detection reagents were prepared (38:1:1 lysis buffer:D2:AB-cryptate reagents). Six μL of mixed detection reagents were added to the cell plate using a Multidrop Combi (small cassette, Thermo Fisher Scientific cat #24073290) and incubated 60 minutes at room temperature in the dark. Fluorescence signal was detected using an Envision plate reader (Perkin Elmer) [LANCE/DELFIA Dual Enh (Em: APC 665; Ex: Cy5 620)].
For each compound, data were fit to a four parameter logistic fit (ActivityBase software) and the EC50 was reported as the inflection point of the resulting curve. Percent effect for each test compound was determined as the percentage of sample raw value/mean max effect, where the mean max effect was derived from the mean raw value of 32 control wells per assay plate (using Orexin A (cat #003-30) at 1 μM for human OX1R and a reference compound at 1 uM with 100% activity previously established by comparison to Orexin A for human OX2R). The intrinsic orexin receptor agonist activity of a compound which may be used in the present invention may be determined by these assays.

human OX2R, sequence (O43614 whole entry): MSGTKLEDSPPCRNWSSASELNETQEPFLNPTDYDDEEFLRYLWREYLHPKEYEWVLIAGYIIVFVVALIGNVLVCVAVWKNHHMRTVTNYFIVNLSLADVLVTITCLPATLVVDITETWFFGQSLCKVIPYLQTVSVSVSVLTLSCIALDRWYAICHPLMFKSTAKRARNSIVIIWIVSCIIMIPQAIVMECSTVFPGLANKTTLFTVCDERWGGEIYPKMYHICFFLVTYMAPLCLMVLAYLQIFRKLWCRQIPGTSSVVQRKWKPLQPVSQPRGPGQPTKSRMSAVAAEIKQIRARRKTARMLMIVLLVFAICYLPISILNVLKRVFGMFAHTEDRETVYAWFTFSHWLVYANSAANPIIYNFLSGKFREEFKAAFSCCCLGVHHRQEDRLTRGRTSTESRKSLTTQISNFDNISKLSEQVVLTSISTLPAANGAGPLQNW

Row | Compound | IC50 | Emax | Emax (%)
1 | CC(C)OC(=O)N1[C@H](C)C[C@H](NS(=O)(=O)N(C)C)[C@@H]1COC1CCC2(c3ncc(F)cn3)CC2C1 (stereo partly drawn) [Example 164, isopropyl (2R,3S,5R)-3-((N,N-dimethylsulfamoyl)amino)-2-(((6-(5-fluoropyrimidin-2-yl)bicyclo[4.1.0]heptan-3-yl)oxy)methyl)-5-methylpyrrolidine-1-carboxylate] |  | 100% | 
2 | COC(=O)N1[C@H](C)C[C@H](NS(=O)(=O)N(C)C)[C@@H]1COC1CCC2(c3ncccn3)C(C1)C2(F)F (stereo partly drawn) [Example 7, methyl (2R,3S,5R)-2-(((7,7-difluoro-6-(pyrimidin-2-yl)bicyclo[4.1.0]heptan-3-yl)oxy)methyl)-3-((N,N-dimethylsulfamoyl)amino)-5-methylpyrrolidine-1-carboxylate] |  | 39.4% | 
3 | COC(=O)N1[C@@H]2CCC[C@@H]2[C@H](NS(=O)(=O)C2CC2)[C@@H]1COC1CCC2(c3ncc(F)cn3)CC2C1 (stereo partly drawn) [Example 128, methyl (2R,3S,3aS,6aR)-3-(cyclopropanesulfonamido)-2-(((6-(5-fluoropyrimidin-2-yl)bicyclo[4.1.0]heptan-3-yl)oxy)methyl)hexahydrocyclopenta[b]pyrrole-1(2H)-carboxylate] |  | 100% | 
4 | CCC(F)(F)COC(=O)N1[C@H](C)C[C@H](NS(C)(=O)=O)[C@@H]1CO[C@H]1CC[C@@]2(c3ncc(F)cn3)C[C@H]2C1 [Example 60, 2,2-difluorobutyl (2R,3S,5R)-2-((((1S,3S,6R)-6-(5-fluoropyrimidin-2-yl)bicyclo[4.1.0]heptan-3-yl)oxy)methyl)-5-methyl-3-(methylsulfonamido)pyrrolidine-1-carboxylate] |  | 104% | 
5 | COC(=O)N1[C@H](C)C[C@H](NS(=O)(=O)C2COC2)[C@@H]1CO[C@H]1CC[C@@]2(c3ncc(F)cn3)C[C@H]2C1 [Example 40, methyl (2R,3S,5R)-2-((((1S,3S,6R)-6-(5-fluoropyrimidin-2-yl)bicyclo[4.1.0]heptan-3-yl)oxy)methyl)-5-methyl-3-(oxetane-3-sulfonamido)pyrrolidine-1-carboxylate] |  | 102% | 
6 | C[C@@H]1C[C@H](NS(C)(=O)=O)[C@H](CO[C@H]2CC[C@@]3(c4ncc(F)cn4)C[C@H]3C2)N1C(=O)OCC(F)(F)F [Example 65, 2,2,2-trifluoroethyl (2R,3S,5R)-2-((((1S,3S,6R)-6-(5-fluoropyrimidin-2-yl)bicyclo[4.1.0]heptan-3-yl)oxy)methyl)-5-methyl-3-(methylsulfonamido)pyrrolidine-1-carboxylate] |  | 102% | 
7 | COC(=O)N1[C@H](C(F)F)C[C@H](NS(=O)(=O)CF)[C@@H]1CO[C@H]1CC[C@@]2(c3ncc(F)cn3)C[C@H]2C1 (single isomer, unassigned) [Example 113] | 0.6 nM | 103% | 
8 | CC(C)OC(=O)N1[C@H](C)C[C@H](NS(=O)(=O)CF)[C@@H]1COC1CCC2(c3ncc(Br)cn3)CC2C1 (single isomer, unassigned) [Example 105] | 233 nM | 91.7% | 
9 | CC(C)OC(=O)N1[C@H](C)C[C@H](NS(=O)(=O)C(F)F)[C@@H]1COC1CCC2(c3ncc(F)cn3)CC2C1 (single isomer, unassigned) [Example 93] | 458 nM |  | 40.6%
10 | C[C@@H]1C[C@H](NS(C)(=O)=O)[C@H](CO[C@H]2CC[C@@]3(c4ncc(F)cn4)C[C@H]3C2)N1C(=O)OC[C@H]1[C@H](C)C1(F)F [Example 55, ((1R,3S)-2,2-difluoro-3-methylcyclopropyl)methyl (2R,3S,5R)-2-((((1S,3S,6R)-6-(5-fluoropyrimidin-2-yl)bicyclo[4.1.0]heptan-3-yl)oxy)methyl)-5-methyl-3-(methylsulfonamido)pyrrolidine-1-carboxylate] |  | 105% | 
11 | COC(=O)N1[C@H](C)C[C@H](NS(=O)(=O)CF)[C@@H]1CO[C@H]1CC[C@@]2(c3ncc(Cl)c(OC)n3)C[C@H]2C1 (single isomer, unassigned) [Example 84] | 4.6 nM | 101% | 
12 | COC(=O)N1[C@H](C)C[C@H](NS(=O)(=O)N(C)C)[C@@H]1COC1CCC2(c3ccc(C#N)cc3)CC2C1 (stereo partly drawn) [Example 5, methyl (2R,3S,5R)-2-(((6-(4-cyanophenyl)bicyclo[4.1.0]heptan-3-yl)oxy)methyl)-3-((N,N-dimethylsulfamoyl)amino)-5-methylpyrrolidine-1-carboxylate] |  | 99.8% | 

Other lines, results leading:

Row | IC50 | Emax | Emax (%) | Compound
13 | 4.5 nM | 101% |  | COC(=O)N1[C@H](C)C[C@H](NS(C)(=O)=O)[C@@H]1CO[C@H]1CC[C@@]2(c3ncccn3)C[C@H]2C1 (single isomer, unassigned) [Example 181]
14 |  | 99.5% |  | CC(C)OC(=O)N1[C@H](C)C[C@H](NS(=O)(=O)N(C)C)[C@@H]1CO[C@@H]1CC[C@]2(c3ncccn3)C[C@@H]2C1 [Example 170, isopropyl (2R,3S,5R)-3-((N,N-dimethylsulfamoyl)amino)-5-methyl-2-((((1R,3R,6S)-6-(pyrimidin-2-yl)bicyclo[4.1.0]heptan-3-yl)oxy)methyl)pyrrolidine-1-carboxylate]
15 | 195 nM | 96.9% |  | COC(=O)N1[C@H](C)C[C@H](NS(C)(=O)=O)[C@@H]1COC1CCC2(c3ncc(C#N)cn3)CC2C1 (mixture of isomers) [Example 188, methyl (2R,3S,5R)-2-(((6-(5-cyanopyrimidin-2-yl)bicyclo[4.1.0]heptan-3-yl)oxy)methyl)-5-methyl-3-(methylsulfonamido)pyrrolidine-1-carboxylate]
16 |  | 85.6% |  | COC(=O)N1[C@H](C)C[C@H](NS(=O)(=O)N(C)C)[C@@H]1COC1CCC2(c3cnccn3)CC2C1 (stereo partly drawn) [Example 10, methyl (2R,3S,5R)-3-((N,N-dimethylsulfamoyl)amino)-5-methyl-2-(((6-(pyrazin-2-yl)bicyclo[4.1.0]heptan-3-yl)oxy)methyl)pyrrolidine-1-carboxylate]
17 |  | 101% |  | COC(=O)N1[C@H](C)C[C@H](NS(=O)(=O)C(F)(F)F)[C@@H]1CO[C@H]1CC[C@@]2(c3ncc(F)cn3)C[C@H]2C1 [Example 31, methyl (2R,3S,5R)-2-((((1S,3S,6R)-6-(5-fluoropyrimidin-2-yl)bicyclo[4.1.0]heptan-3-yl)oxy)methyl)-5-methyl-3-((trifluoromethyl)sulfonamido)pyrrolidine-1-carboxylate]
18 |  | 89.5% |  | COC(=O)N1[C@H](C)C[C@H](NS(C)(=O)=O)[C@@H]1COC1CCC2(c3ncc(OC(F)F)c(C)n3)CC2C1 (stereo partly drawn) [Example 75, methyl (2R,3S,5R)-2-(((6-(5-(difluoromethoxy)-4-methylpyrimidin-2-yl)bicyclo[4.1.0]heptan-3-yl)oxy)methyl)-5-methyl-3-(methylsulfonamido)pyrrolidine-1-carboxylate]
19 | 176 nM |  | 100.5% | COC(=O)N1[C@H](C)C[C@H](NS(C)(=O)=O)[C@@H]1COC1CCC2(c3ccccc3)CC2C1 (single isomer, unassigned) [Example 2]
20 |  | 101% |  | COC(=O)N1[C@H](C)C[C@H](NS(=O)(=O)C(F)F)[C@@H]1CO[C@@H]1CC[C@]2(c3ncccn3)C[C@@H]2C1 [Example 69, methyl (2R,3S,5R)-3-((difluoromethyl)sulfonamido)-5-methyl-2-((((1R,3R,6S)-6-(pyrimidin-2-yl)bicyclo[4.1.0]heptan-3-yl)oxy)methyl)pyrrolidine-1-carboxylate]
21 | 717 nM | 54.3% |  | COC(=O)N1[C@H](C)C[C@H](NS(C)(=O)=O)[C@@H]1CO[C@@H]1CC[C@]2(c3ncc(C)cn3)C[C@@H]2C1 (single isomer, unassigned) [Example 155]
22 | 20.6 nM | 99.6% |  | COC(=O)N1[C@H](C)C[C@H](NS(C)(=O)=O)[C@@H]1COC1CCC2(c3ccccc3)CC2C1 (single isomer, unassigned) [Example 1]
